Laboratory results reported in patent publication US9833497B2, “Human originated EGF domain proteins and use of the same” (CHENGDU SOURCEBIO LIMITED-LIABILITY COMPANY, priority 2013, dated 2017).

Assays:
Format in all cases: cell-based
[1] = test system: Klebsiella pneumonia; experiment: MIC against Gram-negative bacteria: Klebsiella pneumonia
Method in brief: (§1)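 Growth inhibition by human EGF domain proteins was scored in LB liquid culture seeded at 5×10^5 CFU/mL. Protein was applied as a two-fold dilution series in triplicate, with shaking incubation at 37° C; MIC is the lowest concentration giving no growth.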

[2] = test system: Citrobacter diversus; experiment: MIC against Gram-negative bacteria: Citrobacter diversus
Method in brief: as §1

[3] = test system: Pseudomonas aeruginosa; experiment: MIC against Gram-negative bacteria: Pseudomonas aeruginosa
Method in brief: as §1

[4] = test system: Proteus vulgaris; experiment: MIC against Gram-negative bacteria: Proteus vulgaris
Method in brief: as §1

[5] = test system: Moraxella catarrhalis; experiment: MIC against Gram-negative bacteria: Moraxella catarrhalis
Method in brief: as §1

[6] = test system: Proteus mirabilis; experiment: MIC against Gram-negative bacteria: Proteus mirabilis
Method in brief: as §1

[7] = test system: E. coli BL21; experiment: MIC against Gram-negative bacteria: E. coli BL21
Method in brief: as §1

[8] = test system: Aeromonas hydrophila; experiment: MIC against Gram-negative bacteria: Aeromonas hydrophila
Method in brief: as §1

[9] = test system: Enterobacter cloacae; experiment: MIC against Gram-negative bacteria: Enterobacter cloacae
Method in brief: as §1

[10] = test system: Serratia marcescens; experiment: MIC against Gram-negative bacteria: Serratia marcescens
Method in brief: as §1

[11] = test system: E. coli DH5α; experiment: Antibacterial activity: MIC and growth curve against E. coli DH5α in 96-well plate; conditions: minimal inhibitory concentration against E. coli DH5α; 96-well plate, 5×10^5 CFU/mL, 37° C., judged after 8 h
Method in brief: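 Log-phase bacteria (OD600 ~0.5) resuspended in LB at 5×10^5 CFU/mL, exposed to recombinant protein at 50, 25, 12.5 μg/mL final in triplicate, 37 °C shaking at 175 rpm. OD600 read every 30 min; MIC is lowest concentration showing no growth.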

[12] = K. pneumonia, 10 h cultivation at 37° C., 5×10^5 CFU/mL
[13] = C. diversus, 10 h cultivation at 37° C., 5×10^5 CFU/mL
[14] = P. aeruginosa, 10 h cultivation at 37° C., 5×10^5 CFU/mL
[15] = P. vulgaris, 10 h cultivation at 37° C., 5×10^5 CFU/mL
[16] = M. catarrhalis, 10 h cultivation at 37° C., 5×10^5 CFU/mL
[17] = P. mirabilis, 10 h cultivation at 37° C., 5×10^5 CFU/mL
[18] = E. coli BL21, 10 h cultivation at 37° C., 5×10^5 CFU/mL
[19] = A. hydrophila, 10 h cultivation at 37° C., 5×10^5 CFU/mL
[20] = E. cloacae, 10 h cultivation at 37° C., 5×10^5 CFU/mL
[21] = S. marcescens, 10 h cultivation at 37° C., 5×10^5 CFU/mL
[22] = 96-well plate, 5×10^5 CFU/mL, 37° C., 10 h
[23] = 10 h cultivation at 37° C., 5×10^5 CFU/mL, two-fold serial dilution

| Substance | MIC (μg/mL) K. pneumonia [1, 12] | MIC (μg/mL) C. diversus [2, 13] | MIC (μg/mL) P. aeruginosa [3, 14] | MIC (μg/mL) P. vulgaris [4, 15] | MIC (μg/mL) M. catarrhalis [5, 16] | MIC (μg/mL) P. mirabilis [6, 17] | MIC (μg/mL) E. coli BL21 [7, 18] | MIC (μg/mL) A. hydrophila [8, 19] | MIC (μg/mL) E. cloacae [9, 20] | MIC (μg/mL) S. marcescens [10, 21] | MIC [11] | further results |
| --- | --- | --- | --- | --- | --- | --- | --- | --- | --- | --- | --- | --- |
| PRT212 (DIDECESGAHQCSEAQTCVNFHGGYRCV; listed as Homo sapiens) | 50 µg/mL | 12.5 µg/mL | 12.5 µg/mL | 12.5 µg/mL | 25 µg/mL | 12.5 µg/mL | 50 µg/mL | 25 µg/mL | 12.5 µg/mL | 12.5 µg/mL | 12.5 µg/mL |  |
| PRT548 (CPCPLSVPSNNFAEGCVLRGGRTQCLCKPGYAGASCERCAPGFFGNPLVLGSSCQP; listed as Homo sapiens) |  |  |  |  |  |  |  |  |  |  | 12.5 µg/mL | MIC against K. pneumonia [1, 22]: 25 µg/mL; MIC against C. diversus [2, 22]: 50 µg/mL; MIC against P. aeruginosa [3, 22]: 50 µg/mL; MIC against P. vulgaris [4, 22]: 25 µg/mL; MIC against M. catarrhalis [5, 22]: 25 µg/mL; MIC against P. mirabilis [6, 22]: 12.5 µg/mL; MIC against E. coli BL21 [7, 22]: 25 µg/mL; MIC against A. hydrophila [8, 22]: 25 µg/mL; MIC against E. cloacae [9, 22]: 12.5 µg/mL; MIC against S. marcescens [10, 22]: 50 µg/mL |
| PRT929 (QIDECYSSPCLNDGRCIDLVNGYQCNCQPGTSGVNCE; listed as Homo sapiens) |  |  |  |  |  |  |  |  |  |  | 100 µg/mL | MIC ([1]; K. pneumonia, 10 h cultivation at 37° C.): 25 µg/mL; MIC ([2]; C. diversus, 10 h cultivation at 37° C.): 12.5 µg/mL; MIC ([3]; P. aeruginosa, 10 h cultivation at 37° C.): 12.5 µg/mL; MIC ([4]; P. vulgaris, 10 h cultivation at 37° C.): 50 µg/mL; MIC ([5]; M. catarrhalis, 10 h cultivation at 37° C.): 50 µg/mL; MIC ([6]; P. mirabilis, 10 h cultivation at 37° C.): 12.5 µg/mL; MIC ([7]; E. coli BL21, 10 h cultivation at 37° C.): 25 µg/mL; MIC ([8]; A. hydrophila, 10 h cultivation at 37° C.): 25 µg/mL; MIC ([9]; E. cloacae, 10 h cultivation at 37° C.): 50 µg/mL; MIC ([10]; S. marcescens, 10 h cultivation at 37° C.): 12.5 µg/mL |
| PRT1155 (QSVSCLNNLCLHQSLCIPDQSFSYSCLCTLGWVGRYCE; listed as Homo sapiens) |  |  |  |  |  |  |  |  |  |  | 25 µg/mL | MIC K. pneumonia [1, 23]: 12.5 µg/mL; MIC C. diversus [2, 23]: 12.5 µg/mL; MIC P. aeruginosa [3, 23]: 25 µg/mL; MIC P. vulgaris [4, 23]: 25 µg/mL; MIC M. catarrhalis [5, 23]: 25 µg/mL; MIC P. mirabilis [6, 23]: 50 µg/mL; MIC E. coli BL21 [7, 23]: 12.5 µg/mL; MIC A. hydrophila [8, 23]: 25 µg/mL; MIC E. cloacae [9, 23]: 12.5 µg/mL; MIC S. marcescens [10, 23]: 12.5 µg/mL |
| PRT245 (DIDECASGKVICPYNRRCVNTFGSYYCKCHIGFELQYIS; listed as Homo sapiens) | 12.5 µg/mL | 25 µg/mL | 12.5 µg/mL | 12.5 µg/mL | 12.5 µg/mL | 25 µg/mL | 50 µg/mL | 12.5 µg/mL | 12.5 µg/mL | 25 µg/mL | 12.5 µg/mL |  |
| PRT767 (AIDLCAEGTHGCEHHCVNSPGSYFCHCQVGFVLQQDQ; listed as Homo sapiens) | 12.5 µg/mL | 25 µg/mL | 25 µg/mL | 12.5 µg/mL | 50 µg/mL | 25 µg/mL | 50 µg/mL | 12.5 µg/mL | 50 µg/mL | 50 µg/mL | 25 µg/mL |  |
